{"source": "patent US20230295293A1", "about": "“BINDING MOLECULES AGAINST FRa” (AstraZeneca AB, priority 2022, published 2023)", "format_in_all_cases": "in vivo, mouse", "key": {"[1]": {"tested_on": "FRα-DM4-resistant OVCAR-3 tumors", "assay": "FRα-DM4-resistant OVCAR3 xenograft model", "settings": "FRα-DM4 resistant OVCAR3 tumors re-implanted in new host mice; two doses (Q2W) of 5 mg/kg", "description": "To develop the OVCAR3 xenograft model, 10×10^6 cells/mouse in 50% Matrigel were inoculated subcutaneously into female 6-8-week-old female NSG (NOD-SCID IL2Rgamma^null). When tumour volume reached within the range of 200-600 mm^3, mice were dosed intravenously with FRα-DM4 ADC (“biosimilar to mirvetuximab soravtansine”, with a DAR of about 3) at 5 mg/kg, once every 2 weeks (Q2W) continuously until tumours relapsed and began to grow in size again. Among mice relapsed after 8 rounds of Q2W dosing, 4 mice were selected and re-challenged with AB1370049-SG3932 DAR8 intravenously at 5 mg/kg Q2W, receiving 2 rounds of AB1370049-SG3932 DAR8 treatment.\nSeparately, relapsed tumor from an additional mouse was excised and re-implanted subcutaneously into female 6-8-week-old female NSG (NOD-SCID IL2Rgamma^null) mice. […]\nTumor volumes were measured by digital caliper and the volumes of tumors were calculated using the following formula: tumor volume=[length (mm)× width (mm)^2×0.52, where the length and width are the longest and shortest diameters of the tumor, respectively. Body weights were measured twice weekly to assess tolerability of the treatments.\n(§1) The growth of tumors in each experimental group was expressed as the mean tumor volume (mm^3)±SEM of the number of animals used."}, "[2]": {"tested_on": "OVO857_CIS (\"OVO0875\") ovarian PDX", "assay": "OVO857_CIS ovarian PDX model", "settings": "for Tumor growth inhibition (TGI %): OVO857 PDX; for Mean Tumor volume (mm^3) ± SEM / TGI (%): OVO875 ovarian cancer PDX", "description": "(§2) In-house in vivo patient derived xenograft (PDX) efficacy studies were conducted using 2 different ovarian PDX models, OVO857_CIS (“OVO0875”) and CTG3226. 6-8-week-old female NSG (NOD-SCID IL2Rgamma^null) as seed mice were implanted subcutaneously with tumor tissue fragments. When sufficient seed animals reached 1000-1500 mm^3, tumors were harvested, and fragments were implanted into study animals. When tumor volume reached approximately 150-250 mm^3, mice were randomly assigned into different groups (n=3 mice per group). One group received no treatment. Four groups were administered intravenously 10, 5, 2.5 and 1.25 mg/kg AB1370049-SG3932 DAR8 respectively. Two groups were administered intravenously 5 and 2.5 mg/kg FRα-DM4 ADC (“biosimilar to mirvetuximab soravtansine”, with a DAR of about 3) respectively. All dosed animals received drug intravenously as a single dose at 10 ml/kg, on day 39 for OVO857_CIS and day 46 for CTG3226 PDX models.\n(§3) Tumor volumes were measured by digital caliper and the volumes of tumors were calculated using the following formula: tumor volume=[length (mm)×width (mm)^2×0.52, where the length and width are the longest and shortest diameters of the tumor, respectively. Body weights were measured twice weekly to assess tolerability of the treatments.\nas §1\n(§4) Tumor growth inhibition (TGI) was calculated by comparing each treatment group to the untreated control group. Percentage inhibition was calculated from the group means using the following formula: […]\n(§5) Where C is mean tumor volume of untreated control group and T is mean tumor volume of treated groups."}, "CTG3226 ovarian PDX": {"tested_on": "CTG3226 ovarian PDX", "assay": "CTG3226 ovarian PDX model", "settings": "for Tumor growth inhibition (TGI %): CTG3226 PDX; for Mean Tumor volume (mm^3) ± SEM / TGI (%): CTG3226 ovarian cancer PDX", "description": "as §2, §3, §1, §4, §5"}}, "data": [{"substance": "FRα-DM4 ADC: \"biosimilar to mirvetuximab soravtansine\", with a DAR of about 3", "values": [{"measurement": "TGI (%)", "setting": "[1]", "value": "still resistant to the treatment"}, {"measurement": "Tumor growth inhibition (TGI %)", "setting": "[2]; single iv dose 2.5 mg/kg", "value": 2, "unit": "%"}, {"measurement": "Tumor growth inhibition (TGI %)", "setting": "[2]; single iv dose 5 mg/kg", "value": 24, "unit": "%"}, {"measurement": "Mean Tumor volume (mm^3) ± SEM", "setting": "[2]; single iv dose 2.5 mg/kg", "value": "1882.00 ± 199.43", "unit": "mm^3"}, {"measurement": "TGI (%)", "setting": "[2]; single iv dose 2.5 mg/kg", "value": 2.40, "unit": "%"}, {"measurement": "Mean Tumor volume (mm^3) ± SEM", "setting": "[2]; single iv dose 5 mg/kg", "value": "1457.15 ± 250.01", "unit": "mm^3"}, {"measurement": "TGI (%)", "setting": "[2]; single iv dose 5 mg/kg", "value": 24.43, "unit": "%"}, {"measurement": "Tumor growth inhibition (TGI %)", "setting": "CTG3226 ovarian PDX; single iv dose 2.5 mg/kg", "value": "no activity"}, {"measurement": "Tumor growth inhibition (TGI %)", "setting": "CTG3226 ovarian PDX; single iv dose 5 mg/kg", "value": 76.5, "unit": "%"}, {"measurement": "Mean Tumor volume (mm^3) ± SEM", "setting": "CTG3226 ovarian PDX; single iv dose 2.5 mg/kg", "value": "1127.58 ± 481.10", "unit": "mm^3"}, {"measurement": "TGI (%)", "setting": "CTG3226 ovarian PDX; single iv dose 2.5 mg/kg", "value": "−16.66", "unit": "%"}, {"measurement": "Mean Tumor volume (mm^3) ± SEM", "setting": "CTG3226 ovarian PDX; single iv dose 5 mg/kg", "value": "226.86 ± 46.03", "unit": "mm^3"}, {"measurement": "TGI (%)", "setting": "CTG3226 ovarian PDX; single iv dose 5 mg/kg", "value": 76.53, "unit": "%"}]}]}
